Results from patent US20240208992A1, “MACROCYCLES AS CFTR MODULATORS” (Idorsia Pharmaceuticals Ltd, priority 2021, published 2024).
pEC50: −log10 of the molar value.

Molecular target: human F508del-CFTR (Homo sapiens, UniProt P13569, DEL508-508)
Assay: F508del-CFTR cell surface expression (corrector activity), DiscoveRx ß-galactosidase complementation chemiluminescence assay in recombinant U2OS cell line;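 note: U2OS cells co-expressing ProLink-tagged F508del-CFTR and a membrane-anchored enzyme acceptor, where more surface CFTR restores β-galactosidase activity measured by chemiluminescence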
Settings: for pEC50: EC50, F508del-CFTR cell surface expression, U2OS cells, 16h compound incubation, geomean values; for Emax: U2OS, in relation to Emax of corrector lumacaftor (=100%), arithmetic mean values

Chain of human F508del-CFTR (P13569 with tags, fused parts or gaps DEL508-508): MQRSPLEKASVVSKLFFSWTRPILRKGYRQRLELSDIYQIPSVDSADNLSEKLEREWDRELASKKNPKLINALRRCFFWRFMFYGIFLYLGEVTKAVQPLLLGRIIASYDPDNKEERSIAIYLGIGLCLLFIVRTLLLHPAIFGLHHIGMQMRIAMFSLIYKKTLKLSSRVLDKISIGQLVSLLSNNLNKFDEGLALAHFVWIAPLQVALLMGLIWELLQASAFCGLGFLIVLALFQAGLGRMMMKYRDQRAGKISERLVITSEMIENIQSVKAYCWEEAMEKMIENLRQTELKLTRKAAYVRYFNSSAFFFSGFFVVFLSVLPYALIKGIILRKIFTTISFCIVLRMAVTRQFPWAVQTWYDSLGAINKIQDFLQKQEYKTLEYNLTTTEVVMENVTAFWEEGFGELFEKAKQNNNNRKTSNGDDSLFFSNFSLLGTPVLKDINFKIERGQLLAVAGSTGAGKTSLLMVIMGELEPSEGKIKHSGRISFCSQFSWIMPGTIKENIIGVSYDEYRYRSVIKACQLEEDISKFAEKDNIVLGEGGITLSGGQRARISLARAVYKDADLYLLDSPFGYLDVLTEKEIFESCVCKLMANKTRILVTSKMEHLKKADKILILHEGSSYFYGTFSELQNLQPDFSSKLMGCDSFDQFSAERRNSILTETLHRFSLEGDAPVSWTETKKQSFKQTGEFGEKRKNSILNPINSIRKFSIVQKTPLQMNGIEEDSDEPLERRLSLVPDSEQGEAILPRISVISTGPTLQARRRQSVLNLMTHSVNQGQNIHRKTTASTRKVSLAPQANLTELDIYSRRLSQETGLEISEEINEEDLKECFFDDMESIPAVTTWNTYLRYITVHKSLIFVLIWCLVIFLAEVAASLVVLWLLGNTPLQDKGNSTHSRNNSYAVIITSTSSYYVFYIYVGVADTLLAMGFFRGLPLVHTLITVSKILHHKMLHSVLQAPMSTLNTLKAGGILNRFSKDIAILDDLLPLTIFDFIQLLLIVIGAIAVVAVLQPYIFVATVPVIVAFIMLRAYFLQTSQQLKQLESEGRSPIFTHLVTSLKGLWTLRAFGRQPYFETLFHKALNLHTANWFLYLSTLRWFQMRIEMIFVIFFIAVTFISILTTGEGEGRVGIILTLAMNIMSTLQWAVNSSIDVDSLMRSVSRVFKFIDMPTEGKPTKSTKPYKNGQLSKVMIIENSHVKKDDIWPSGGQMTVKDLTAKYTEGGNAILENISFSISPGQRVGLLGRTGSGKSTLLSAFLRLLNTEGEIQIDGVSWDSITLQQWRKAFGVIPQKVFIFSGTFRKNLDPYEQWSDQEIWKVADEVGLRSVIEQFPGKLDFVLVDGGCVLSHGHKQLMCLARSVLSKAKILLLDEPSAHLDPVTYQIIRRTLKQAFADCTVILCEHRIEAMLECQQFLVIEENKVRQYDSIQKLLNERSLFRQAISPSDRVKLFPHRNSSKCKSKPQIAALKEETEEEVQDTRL

SMILES: COc1cc(CCNC(=O)[C@@H]2CC(=O)N(C)[C@@H](CC(C)C)C(=O)N(C)[C@H](C)C(=O)N[C@H](Cc3ccccc3)COc3ccc4nccn4c3C(=O)N2)on1 [Example 789, (3S,7S,10R,13R)-13-benzyl-7-isobutyl-N-(2-(3-methoxyisoxazol-5-yl)ethyl)-6,9,10-trimethyl-1,5,8,11-tetraoxo-1,2,3,4,5,6,7,8,9,10,11,12,13,14-tetradecahydroimidazo[1′,2′:1,6]pyrido[2,3-p][1]oxa[4,7,10,14]tetraazacycloheptadecine-3-carboxamide]
- pEC50: 6.17
- Emax: 358%

SMILES: CC(C)C[C@H]1C(=O)N(C)[C@H](C)C(=O)N[C@H](Cc2ccccc2)COc2ccc3nccn3c2C(=O)N[C@H](C(=O)NCCc2cc(C3CC3)no2)CC(=O)N1C [Example 790, (3S,7S,10R,13R)-13-benzyl-N-(2-(3-cyclopropylisoxazol-5-yl)ethyl)-7-isobutyl-6,9,10-trimethyl-1,5,8,11-tetraoxo-1,2,3,4,5,6,7,8,9,10,11,12,13,14-tetradecahydroimidazo[1′,2′:1,6]pyrido[2,3-p][1]oxa[4,7,10,14]tetraazacycloheptadecine-3-carboxamide]
- pEC50: 6.19
- Emax: 350%

SMILES: COc1cc(CCNC(=O)[C@@H]2CC(=O)N(C)[C@@H](CC(C)C)C(=O)N(C)[C@H](CC(F)(F)F)C(=O)N[C@H](Cc3ccccc3)COc3cc(C)nc(OC)c3C(=O)N2)on1 [Example 791, (3R,6R,9S,13S)-3-benzyl-9-isobutyl-16-methoxy-N-(2-(3-methoxyisoxazol-5-yl)ethyl)-7,10,18-trimethyl-5,8,11,15-tetraoxo-6-(2,2,2-trifluoroethyl)-2,3,4,5,6,7,8,9,10,11,12,13,14,15-tetradecahydropyrido[3,4-p][1]oxa[4,7,10,14]tetraazacycloheptadecine-13-carboxamide]
- pEC50: 7.10
- Emax: 345%

SMILES: COc1cc(CCNC(=O)[C@@H]2CC(=O)N(C)[C@@H](CC(C)C)C(=O)N(C)[C@@H](CC(F)(F)F)C(=O)N[C@H](Cc3ccccc3)COc3cc(C)nc(OC)c3C(=O)N2)on1 [Example 792, (3R,6S,9S,13S)-3-benzyl-9-isobutyl-16-methoxy-N-(2-(3-methoxyisoxazol-5-yl)ethyl)-7,10,18-trimethyl-5,8,11,15-tetraoxo-6-(2,2,2-trifluoroethyl)-2,3,4,5,6,7,8,9,10,11,12,13,14,15-tetradecahydropyrido[3,4-p][1]oxa[4,7,10,14]tetraazacycloheptadecine-13-carboxamide]
- pEC50: 6.20
- Emax: 261%

SMILES: CC(C)C[C@H]1C(=O)N2CCCC[C@H]2C(=O)N[C@H](Cc2ccccc2)COc2ccc3ncc(F)cc3c2C(=O)N[C@H](C(=O)NCCc2noc(C3CC3)n2)CC(=O)N1C [Example 793, (9S,13S,19aS,22R)-22-benzyl-N-(2-(5-cyclopropyl-1,2,4-oxadiazol-3-yl)ethyl)-5-fluoro-13-isobutyl-12-methyl-7,11,14,20-tetraoxo-7,8,9,10,11,12,13,14,17,18,19,19a,20,21,22,23-hexadecahydro-16H-pyrido[2′,11:6,7][1]oxa[4,7,10,14]tetraazacycloheptadecino[16,17-f]quinoline-9-carboxamide]
- pEC50: 6.63
- Emax: 105%

SMILES: CC(C)C[C@H]1C(=O)N(C)[C@H](Cc2nc(-c3ccc(F)cn3)no2)C(=O)N[C@H](Cc2ccccc2)COc2ccc3ncc(F)cc3c2C(=O)N[C@H](C(=O)NCCc2noc(C3CC3)n2)CC(=O)N1C [Example 794, (3S,7S,10R,13R)-13-benzyl-N-(2-(5-cyclopropyl-1,2,4-oxadiazol-3-yl)ethyl)-20-fluoro-10-((3-(5-fluoropyridin-2-yl)-1,2,4-oxadiazol-5-yl)methyl)-7-isobutyl-6,9-dimethyl-1,5,8,11-tetraoxo-1,2,3,4,5,6,7,8,9,10,11,12,13,14-tetradecahydro-[1]oxa[4,7,10,14]tetraazacycloheptadecino[16,17-f]quinoline-3-carboxamide]
- pEC50: 7.08
- Emax: 354%
